Results on 23 molecules are retold here after patent publication US9822107B2, “Thiazole-substituted aminoheteroaryls as spleen tyrosine kinase inhibitors” (MERCK SHARP & DOHME CORP., priority 2013, dated 2017).

One data set deals with T1, recombinant human GST-SYK (Homo sapiens, UniProt P43405).
T1 construct: purchased Carna Biosciences 08-176
Kind of data set: Homogeneous Time-Resolved Fluorescence (HTRF) assay for the recombinant human Syk enzyme. The data set is classed as biochemical. The conditions noted are these: recombinant human GST-SYK 5 pM, ATP 25 μM, read-out: rhSYK Activity (IC50). The protocol:
Homogeneous Time-Resolved Fluorescence (HTRF) Assay for the Recombinant Human Syk Enzyme
A recombinant GST-hSYK fusion protein was used to measure potency of compounds to inhibit human Syk activity. […] Final volume of the reaction was 10 μL. Phosphorylation of the peptide was allowed to proceed for 45′ at room temperature. To quench the reaction and detect the phosphorylated product, 2 nM of a Europium-anti-phosphotyrosine antibody (Perkin Elmer #AD0161) and 70 nM SA-APC (Perkin-Elmer #CR130-100) were added together in 15 mM Tris pH 7.5, 40 mM EDTA, 0.01% tween 20. Final volume of the quenching solution was 10 μL.
The resulting HTRF signal was measured after 30 minutes on an EnVision (Perkin-Elmer) reader using a time-resolved fluorescence protocol.
(Time-resolved FRET reads energy transfer from a long-lived donor to a nearby acceptor.)
Turning to `CC1(C)Oc2c(cc(Nc3nccc(C(F)(F)F)n3)cc2-c2cnc(C3(O)CCC3)s2)NC1=O` [Example 2.2, 8-[2-(1-hydroxycyclobutyl)-1,3-thiazol-5-yl]-2,2-dimethyl-6-{[4-(trifluoromethyl)pyrimidin-2-yl]amino}-2H-1,4-benzoxazin-3(4H)-one], the IC50 – broadly, the concentration needed to halve the response being measured – turned out to be 13200 pM.
Same read-out and setting: under `CC1(C)Oc2c(cc(Nc3nccc(-c4c[nH]nn4)n3)cc2-c2cnc([C@]3(O)CC[C@@H](C(=O)O)CC3)s2)NC1=O` [Example 2.1, (cis)-4-(5-(6-((4-(1H-1,2,3-Triazol-4-yl)pyrimidin-2-yl)amino)-2,2-dimethyl-3-oxo-3,4-dihydro-2H-benzo[b][1,4]oxazin-8-yl)thiazol-2-yl)-4-hydroxycyclohexanecarboxylic acid] stands 300 pM.
The same measure, in the same setting: under `CC1(C)C[C@@](O)(c2ncc(-c3cc(Nc4nccc(C(F)(F)F)n4)cc4[nH]ccc34)s2)CC[C@@H]1C(=O)O` (single isomer, unassigned) [Example 1.3, (1S,4R or 1R,4S)-4-hydroxy-2,2-dimethyl-4-[5-(6-{[4-(trifluoromethyl)pyrimidin-2-yl]amino}-1H-indol-4-yl)-1,3-thiazol-2-yl]cyclohexane-carboxylic acid] stands 60 pM; under `O=C(O)[C@H]1CC[C@](O)(c2ncc(-c3c[nH]c4ccc(Nc5nccc(C(F)(F)F)n5)cc34)s2)CC1` [Example 1.8], 500 pM.
On the same count and under the same terms, under `CC1(C)Oc2c(cc(Nc3nccc(C(F)(F)F)n3)cc2-c2cnc(C(C)(O)C(F)(F)F)s2)NC1=O` (stereo not shown) [Example 2.5, 2,2-dimethyl-8-[2-(2,2,2-trifluoro-1-hydroxy-1-methylethyl)-1,3-thiazol-5-yl]-6-{[4-(trifluoromethyl)pyrimidin-2-yl]amino}-2H-1,4-benzoxazin-3(4H)-one] stands 35800 pM; under `Cn1ccc2c(-c3cnc([C@@]4(O)CC[C@H](C(=O)O)C(C)(C)C4)s3)cc(Nc3nccc(C(F)(F)F)n3)cc21` (single isomer, unassigned) [Example 1.4, (1S,4R or 1R,4S)-4-hydroxy-2,2-dimethyl-4-[5-(1-methyl-6-{[4-(trifluoromethyl)pyrimidin-2-yl]amino}-1H-indol-4-yl)-1,3-thiazol-2-yl]cyclohexane-carboxylic acid], 477 pM; under `O=C(O)[C@H]1CC[C@](O)(c2ncc(-c3n[nH]c4ccc(Nc5nccc(C(F)(F)F)n5)cc34)s2)CC1` [Example 1.11], 500 pM.
On to `CC1(C)C[C@@](O)(c2ncc(-c3c[nH]c4cc(Nc5nccc(C(F)(F)F)n5)ccc34)s2)CC[C@@H]1C(=O)O` (single isomer, unassigned) [Example 1.7, (1S,4R or 1R,4S)-4-hydroxy-2,2-dimethyl-4-(5-(6-((4-(trifluoromethyl)pyrimidin-2-yl)amino)-1H-indol-3-yl)thiazol-2-yl)cyclohexanecarboxylic acid], for which the IC50 came out at 49000 pM.
Same read-out and setting: under `O=C(O)[C@H]1CC[C@](O)(c2ncc(-c3c[nH]c4ccc(Nc5nccc(C(F)F)n5)cc34)s2)CC1` [Example 1.12, cis 4-(5-(5-((4-(difluoromethyl)pyrimidin-2-yl)amino)-1H-indol-3-yl)thiazol-2-yl)-4-hydroxy-cyclohexanecarboxylic acid] stands 500 pM; under `CC(O)(c1ncc(-c2cc(Nc3nccc(C(F)(F)F)n3)cc3cn[nH]c23)s1)[C@H]1CC[C@H](C(=O)O)CC1` (single isomer, unassigned) [Example 2.10, (trans)-4-((R or S)-1-hydroxy-1-[5-(5-{[4-(trifluoromethyl)pyrimidin-2-yl]amino}-1H-indazol-7-yl)-1,3-thiazol-2-yl]ethyl}cyclohexanecarboxylic acid], 114 pM; under `OC1(c2ncc(-c3cc(Nc4nccc(C(F)(F)F)n4)cc4[nH]ccc34)s2)CCC1` [Example 1.2, 1-[5-(6-{[4-(trifluoromethyl)pyrimidin-2-yl]amino}-1H-indol-4-yl)-1,3-thiazol-2-yl]cyclobutanol], 10400 pM.
On the same count and under the same terms, the same measure for `CC(O)(c1ncc(-c2c[nH]c3cc(Nc4nccc(C(F)(F)F)n4)ccc23)s1)[C@H]1CC[C@H](C(=O)O)CC1` (single isomer, unassigned) [Example 1.9, (trans)-4-((R or S)-1-hydroxy-1-(5-(6-((4-(trifluoromethyl)pyrimidin-2-yl)amino)-1H-indol-3-yl)thiazol-2-yl)ethyl) cyclohexanecarboxylic acid]: 39900 pM; for `O=c1[nH]c2cc(Nc3nccc(C(F)(F)F)n3)cc(-c3cnc(C4(O)CCC4)s3)c2[nH]1` [Example 2.4, 4-[2-(1-hydroxycyclobutyl)-1,3-thiazol-5-yl]-6-{[4-(trifluoromethyl)pyrimidin-2-yl]amino}-1,3-dihydro-2H-benzimidazol-2-one]: 10100 pM.
The same measure, in the same setting: under `CC1(C)C[C@@H](C(C)(O)c2ncc(-c3cc(Nc4nccc(C(F)(F)F)n4)cc4cn[nH]c34)s2)CC[C@@H]1C(=O)O` (single isomer, unassigned) [Example 2.9, (trans)-4-((R or S)-1-hydroxy-1-[5-(5-{[4-(trifluoromethyl)pyrimidin-2-yl]amino}-1H-indazol-7-yl)-1,3-thiazol-2-yl]ethyl}-2,2-dimethylcyclohexanecarboxylic acid] stands 866 pM; under `CC(O)(c1ncc(-c2ccnc3cc(Nc4nccc(C(F)(F)F)n4)ccc23)s1)[C@H]1CC[C@H](C(=O)O)CC1` (single isomer, unassigned) [Example 1.6], 61600 pM.
Take `C[C@](O)(c1ncc(-c2cc(Nc3nccc(C(F)(F)F)n3)cc3[nH]ncc23)s1)C1CCC(C(=O)O)CC1` (single isomer, unassigned) [Example 2.11, (trans)-4-((R or S)-(1-hydroxy-1-(5-(6-((4-(trifluoromethyl)pyrimidin-2-yl)amino)-1H-indazol-4-yl)thiazol-2-yl)ethyl)cyclohexanecarboxylic acid]: the IC50 came to 500 pM.
Same read-out and setting: under `CC(C)Oc1ccnc(Nc2cc3c(c(-c4cnc([C@]5(O)CC[C@@H](C(=O)O)CC5)s4)c2)OC(C)(C)C(=O)N3)n1` [Example 2.7, cis-4-[5-(2,2-dimethyl-6-{[4-(1-methylethoxy)pyrimidin-2-yl]amino}-3-oxo-3,4-dihydro-2H-1,4-benzoxazin-8-yl)-1,3-thiazol-2-yl]-4-hydroxy-cyclohexanecarboxylic acid] stands 366 pM; under `CC1(C)C[C@@](O)(c2ncc(-c3cc(Nc4nccc(C(F)(F)F)n4)cc4cn[nH]c34)s2)CC[C@@H]1C(=O)O` (single isomer, unassigned) [Example 2.8], 552 pM.
Same read-out and setting: the same measure for `CC(O)(c1ncc(-c2cc(Nc3nccc(C(F)(F)F)n3)cc3[nH]ccc23)s1)[C@H]1CC[C@H](C(=O)O)CC1` (single isomer, unassigned) [Example 1.1, (trans)-4-((R or 5)-1-hydroxy-1-(5-(6-((4-(trifluoromethyl)pyrimidin-2-yl)amino)-1H-indol-4-yl)thiazol-2-yl)ethyl)cyclohexanecarboxylic acid]: 500 pM.
Same read-out and setting: under `CCOC(=O)[C@H]1CC[C@](O)(c2ncc(-c3cc(Nc4nccc(OC(C)C)n4)cc4c3OC(C)(C)C(=O)N4)s2)CC1` [Example 2.6, ethyl cis-4-[5-(2,2-dimethyl-6-{[4-(1-methylethoxy)pyrimidin-2-yl]amino}-3-oxo-3,4-dihydro-2H-1,4-benzoxazin-8-yl)-1,3-thiazol-2-yl]-4-hydroxy-cyclohexanecarboxylate] stands 7100 pM.
As for `CC(O)(c1ncc(-c2cc(Nc3nccc(C(F)(F)F)n3)cc3[nH]cnc23)s1)[C@H]1CC[C@H](C(=O)O)CC1` (single isomer, unassigned) [Example 2.12, (trans)-4-((R or S)-1-hydroxy-1-(5-(6-((4-(trifluoromethyl)pyrimidin-2-yl)amino)-1H-benzo[d]imidazol-4-yl)thiazol-2-yl)ethyl)cyclohexanecarboxylic acid], the IC50 is 500 pM.
Take `CC1(C)C[C@@](O)(c2ncc(-c3ccnc4cc(Nc5nccc(C(F)(F)F)n5)ccc34)s2)CC[C@@H]1C(=O)O` (single isomer, unassigned) [Example 1.5, (1S,4R or 1R,4S)-4-hydroxy-2,2-dimethyl-4-(5-(7-((4-(trifluoromethyl)pyrimidin-2-yl)amino)quinolin-4-yl)thiazol-2-yl)cyclohexanecarboxylic acid]: the IC50 amounted to 63200 pM.

Another data set concerns PGD2.
Test: not given
The conditions noted are these: dosed intranasally, phase I/II study, allergic rhinitis; cited from earlier work.
As to `Oc1cccc(Nc2ncc(F)c(Nc3cccc(O)c3)n2)c1` [Example R112], the clinical safety entry is recorded as “safe across a range of indicators” and the “decrease in PGD2” value is “statistically significant decrease”.

Tested on in another data set: not given
Test: not given
The conditions noted are these: phase II clinical trial, allergic rhinitis; cited from earlier work.
On to `Oc1cccc(Nc2ncc(F)c(Nc3cccc(O)c3)n2)c1` [Example R112], for which the efficacy versus placebo result is “lack of efficacy versus placebo”.
